Results reported in US20100209960A1, “METHOD FOR MEASURING MITOCHONDRIAL MEMBRANE POTENTIAL IN VERTEBRATE CELLS” (MERCK SHARP & DOHME CORP., priority 2007, published 2010).

Assays:
[1] = test system: mitochondrial membrane potential in CHO—K1 cells; assay: Homogeneous TMRM/Brilliant Black BN mitochondrial membrane potential assay, 1536 well plate; assay type: cell-based; conditions: Cricetulus griseus, 0.5 h, 30 minutes incubation, TMRM fluorescence, read-out: EC50 (decrease of mitochondrial membrane potential)
Protocol: 24 hours before assay, CHO—K1 cells were seeded in a 1536 well plate at 10,000 cells per well in 4 μl growth medium (Iscove's Modified Dulbecco's Medium Invitrogen, 12440-046, 10% Fetal Bovine Serum (Invitrogen, 26140-095), 1×HT Supplement (Invitrogen, 11067-030) 1× Penicillin-Streptomycin solution (Hyclone, SV30010) 2 mM Glutamine (Hyclone, SH30034.01). Cells were then incubated overnight at 37° C., 5% carbon dioxide. When commencing the assay, 4 μl of assay buffer (50 mM Hepes, pH 7.4 150 mM KCL, 1600 mM NaCl, 25 mM D-(+)-glucose) was added to cells. 80 nl of various amounts of the mitochondrial uncoupling compound, CCCP, was added and the cells were then incubated for 30 minutes at 37° C., 5% carbon dioxide. 0.8 μl of 6 μM fluorescent dye TMRM (in 20% DMSO) was added and cells were incubated for 20 minutes at room temperature. 0.8 μl of 16 mM Brilliant Black BN prepared in D-PBS was added yield a 1.6 mM final concentration of Brilliant Black BN. The fluorescence was immediately read on a Molecular Devices Tetra fluorescent plate reader, using an excitation wavelength of 530 nm and measuring the emission at 580 nm while employing a custom filter (Omega Optical) whose transmission wavelength was 580 nm±10 nm.

[2] = test system: mitochondrial membrane potential in CHO—K1 cells; assay: cells; assay type: cell-based; conditions: for EC50: Cricetulus griseus, read-out: EC50 (decrease of mitochondrial membrane potential)
Protocol: 24 hours before assay, CHO—K1 cells were seeded in a 384 well plate at 75,000 cells per well in 50 μl growth medium (Iscove's Modified Dulbecco's Medium Invitrogen, 12440-046, 10% Fetal Bovine Serum (Invitrogen, 26140-095), 1× HT Supplement (Invitrogen, 11067-030) 1× Penicillin-Streptomycin solution (Hyclone, SV30010) 2 mM Glutamine (Hyclone, SH30034.01). Cells were then incubated overnight at 37° C., 5% carbon dioxide. When commencing the assay, 50 μl of assay buffer (50 mM Hepes, pH 7.4 150 mM KCL, 1600 mM NaCl, 25 mM D-(+)-glucose) was added to cells. […] 10 μl of 9 μM fluorescent dye TMRM (in 10% DMSO) was added and cells are incubated for 20 minutes at room temperature. 10 μl of 16 mM Brilliant Black BN prepared in D-PBS was added to yield a 1.6 mM final concentration of Brilliant Black BN. The fluorescence was immediately read on a Molecular Devices Analyst HT fluorescent plate reader, using an excitation wavelength of 530 nm and measuring the emission at 580 nm.
24 hours before assay, CHO—K1 cells were seeded in a 384 well plate at 75,000 cells per well in 50 μl growth medium (Iscove's Modified Dulbecco's Medium, lnvitrogen, 12440-046, 10% Fetal Bovine Serum (Invitrogen, 26140-095), 1× HT Supplement (Invitrogen, 11067-030) 1× Penicillin-Streptomycin solution (Hyclone, SV30010) 2 mM Glutamine (Hyclone, SH30034.01). Cells were then incubated overnight at 37° C., 5% carbon dioxide. When commencing the assay, 50 μl of assay buffer (50 mM Hepes, pH 7.4 150 mM KCL, 1600 mM NaCl, 25 mM D-(+)-glucose) was added to cells. 1 μl of the various amounts of the cation ionophore, H+—K+ antiporter, nigericin, was added and the cells are then incubated for 30 minutes at 37° C., 5% carbon dioxide. 10 μl of 9 μM fluorescent dye TMRM (in 10% DMSO) was added and cells are incubated for 20 minutes at room temperature. 10 μl of 16 mM Brilliant Black BN prepared in D-PBS was added yield a 1.6 mM final concentration of Brilliant Black BN. The fluorescence was immediately read on a Molecular Devices Analyst HT fluorescent plate reader, using an excitation wavelength of 530 nm and measuring the emission at 580 nm.

Q: With `N#CC(C#N)=NNc1cccc(Cl)c1` [CCCP, carbonylcyanide m-chlorophenylhydrazone] as the compound, how does the EC50 [1] read?
A: The EC50 was 0.18 µM.

Q: What about the EC50 ([2]; 0.5 h, adherent CHO—K1 cells, 384 well plate, 30 minutes incubation, TMRM fluorescence) of the same compound?
A: The EC50 was 0.25 µM.

Q: Which EC50 ([2]; CHO-K1, 0.5 h) does the source give for `O=[N+]([O-])c1ccc(O)c([N+](=O)[O-])c1` [2,4-DNP, 2,4-dinitrophenol] here?
A: The EC50 was 5 µM.

Q: Which “Effect at greater levels of nigericin” value [2] does the source give for `CO[C@@H]1C[C@@H](C[C@H]2CC[C@H](C)[C@H]([C@@H](C)C(=O)O)O2)O[C@]2(O[C@](C)([C@H]3CC[C@@](C)([C@@H]4O[C@@H]([C@H]5O[C@@](O)(CO)[C@H](C)C[C@@H]5C)C[C@@H]4C)O3)C[C@H]2C)[C@@H]1C` [Nigericin, nigericin] here?
A: The value was “toxicity and membrane depolarization”.

Q: And the “Effect on mitochondrial membrane potential” value ([2]; adherent CHO—K1 cells, 384 well plate, increasing amounts of nigericin)?
A: Its value is “caused hyperpolarization of the mitochondrial membrane”.
